Consider 31 compounds from ChEMBL document CHEMBL5370642, “Synthesis and Bioevaluation of 3-(Arylmethylene)indole Derivatives: Discovery of a Novel ALK Modulator with Antiglioblastoma Activities” (J Med Chem, 2023).

Molecules are shown by their SMILES. The source made the active and inactive calls. No cut-off for these calls is given here.

In general, IC50 refers to the concentration that inhibits the measured activity by half.

Test [1] relates to U-87 MG. The experiment in a line: Anti-proliferative activity against human U-87 MG cells assessed as cell viability incubated for 2 hrs by CCK8 assay. The test is classed as functional, cell-based, U-87MG ATCC. In general terms: Tetrazolium assays rely on reduction of a dye to a coloured formazan, in cell work by metabolically active cells.
Test [2] has as its system GL261. The experiment in a line: Anti-proliferative activity against mouse GL261 cells assessed as cell viability incubated for 2 hrs by CCK8 assay. The test is classed as functional, cell-based. Conditions: GL261, 2 h.
Test [3] relates to GL261. The experiment in a line: Anti-proliferative activity against […] GL261 cells assessed as inhibition rate incubated for 48 hrs by CCK8 assay. The test is classed as functional, cell-based.
Test [4] deals with U-87 MG. The test is described as follows: Anti-proliferative activity against human U-87 MG cells assessed as inhibition rate incubated for 48 hrs by CCK8 assay. Format: functional, cell-based. Conditions: U-87MG ATCC.

For the compound `COc1ccc2c(Cc3cc(C)c(O)c(C)c3)cn(S(=O)(=O)c3ccc(C)cc3)c2c1`, the IC50 in the test on U-87 MG [1] amounted to 10.4 µM; with GL261 [2], 38.5 µM.

For `Cc1ccc(S(=O)(=O)n2cc(Cc3cc(C(C)C)c(O)c(C(C)C)c3)c3ccccc32)cc1`, the IC50 with U-87 MG [1] worked out at 75.4 µM; in the test on GL261 [2], 90.3 µM.

As for `Cc1cc(Cc2cn(S(=O)(=O)c3ccc([N+](=O)[O-])cc3)c3ccccc23)cc(C)c1O`, the half-maximal inhibitory concentration (IC50) with U-87 MG [1] was more than 100 µM; in the test on GL261 [2] it was 100 µM.

Take `Cc1ccc(S(=O)(=O)n2cc(Cc3cc(C)c(O)c(C)c3)c3cc([N+](=O)[O-])ccc32)cc1`: the IC50 turned out to be 23.2 µM in the test on U-87 MG [1] and 19.7 µM in the test on GL261 [2].

In the case of `CCn1cc(Cc2cc(C)c(O)c(C)c2)c2ccccc21`, the concentration for half-maximal inhibition (IC50) with U-87 MG [1] was more than 100 µM; with GL261 [2], 100 µM.

Turning to `Cc1ccc(S(=O)(=O)n2cc(Cc3cc(C)c(O)c(C)c3)c3cc(C#N)ccc32)cc1`, the half-inhibitory concentration (IC50) was determined as 30.2 µM with U-87 MG [1] and 9.6 µM with GL261 [2].

Turning to `Cc1cc(Cc2cn(C)c3ccccc23)cc(C)c1O`, the concentration for half-maximal inhibition (IC50) with U-87 MG [1] amounted to 7.96 µM; with GL261 [2] it was 12.7 µM.

In the case of `OCc1c[nH]c2ccccc12` [INDOLE-3-CARBINOL], the results for the IC50 with U-87 MG [1] and in the test with GL261 [2] were more than 100 µM and 100 µM, respectively.

With `C[C@@H](Oc1cc(-c2cnn(C3CCNCC3)c2)cnc1N)c1c(Cl)ccc(F)c1Cl` [CRIZOTINIB], the figures for the IC50 in the test with U-87 MG [1] and in the test on GL261 [2] were 7.29 µM and 3.43 µM, respectively.

In the case of `COc1c(C)cc(Cc2cn(S(=O)(=O)c3ccc(C)cc3)c3ccccc23)cc1C`, the IC50 is more than 100 µM in the test on U-87 MG [1] and 100 µM in the test on GL261 [2].

As for `Cc1ccc(S(=O)(=O)n2cc(Cc3cc(C)c(O)c(C)c3)c3cc(C)ccc32)cc1`, the values for the half-inhibitory concentration (IC50) in the test with U-87 MG [1] and with GL261 [2] were 20.7 µM and 12.3 µM, respectively.

In the case of `Cc1cc(Cc2cn(S(=O)(=O)c3ccc([N+](=O)[O-])c(Cl)c3)c3ccccc23)cc(C)c1O`, the 50% inhibitory concentration (IC50) in the test with U-87 MG [1] worked out at 3.52 µM; in the test on GL261 [2] it was 15.7 µM.

Take `Cc1cc(Cc2cn(C(=O)c3ccncn3)c3ccccc23)cc(C)c1O`: the IC50 is more than 100 µM with U-87 MG [1] and 13.3 µM in the test with GL261 [2].

In the case of `Cc1cc(Cc2c[nH]c3ccccc23)cc(C)c1O`, the results for the IC50 in the test on U-87 MG [1] and in the test on GL261 [2] were more than 100 µM and 12.8 µM, respectively.

For the compound `CC(C)c1cccc(C(C)C)c1O` [PROPOFOL], the half-inhibitory concentration (IC50) was more than 100 µM in the test with U-87 MG [1] and 100 µM in the test with GL261 [2].

Consider `Cc1cc(Cc2cn(C(=O)c3ccc(N4CCOCC4)cc3)c3ccccc23)cc(C)c1O`, for which the half-maximal inhibitory concentration (IC50) in the test with U-87 MG [1] is 12.6 µM; in the test with GL261 [2], 12.7 µM.

With `CCC(=O)n1cc(Cc2cc(C)c(O)c(C)c2)c2ccccc21`, the 50% inhibitory concentration (IC50) in the test with U-87 MG [1] came out at 100 µM; in the test with GL261 [2], 2850 µM.

For the compound `Cc1cc(Cc2cn(S(C)(=O)=O)c3ccccc23)cc(C)c1O`, the IC50 with U-87 MG [1] was more than 100 µM; in the test on GL261 [2] it was 100 µM.

As to `Cc1cc(Cc2cn(S(=O)(=O)c3ccc(Br)cc3)c3ccccc23)cc(C)c1O`, the figures for the IC50 with U-87 MG [1] and with GL261 [2] were more than 100 µM and 100 µM, respectively.

As for `COc1ccc2c(c1)c(Cc1cc(C)c(O)c(C)c1)cn2S(=O)(=O)c1ccc(C)cc1`, the concentration for half-maximal inhibition (IC50) is 28.1 µM with U-87 MG [1] and 56.1 µM with GL261 [2].

Regarding `Cc1cc(Cc2cn(C(=O)c3ccc(N4CCN(C)CC4)cc3)c3ccccc23)cc(C)c1O`, the IC50 in the test on U-87 MG [1] stood at 5.59 µM; in the test on GL261 [2], 3.49 µM.

In the case of `Cc1cc(Cc2cn(C(=O)c3ccc(Cl)cc3)c3ccccc23)cc(C)c1O`, the half-maximal inhibitory concentration (IC50) in the test with U-87 MG [1] was 41.3 µM; in the test with GL261 [2], 100 µM.

For `Cc1cc(Cc2cn(C(=O)c3ccnc4ccccc34)c3ccccc23)cc(C)c1O`, the half-inhibitory concentration (IC50) is more than 100 µM with U-87 MG [1] and 11.4 µM in the test with GL261 [2].

With `Cc1ccc(S(=O)(=O)n2cc(Cc3cc(C)c(O)c(C)c3)c3cc(F)ccc32)cc1`, the figures for the IC50 in the test with U-87 MG [1] and with GL261 [2] were 42.6 µM and 100 µM, respectively.

Consider `Cc1cc(Cc2c[nH]c3ccc(F)cc23)cc(C)c1O`, for which the IC50 stood at 55.1 µM in the test on U-87 MG [1] and 19.2 µM with GL261 [2].

`Cc1ccc(S(=O)(=O)n2cc(Cc3cc(C(C)(C)C)c(O)c(C(C)(C)C)c3)c3ccccc32)cc1`: the IC50 was more than 100 µM with U-87 MG [1] and 100 µM in the test on GL261 [2].

Regarding `Cc1cc(Cc2cn(C(=O)c3ccc([N+](=O)[O-])cc3)c3ccccc23)cc(C)c1O`, the concentration for half-maximal inhibition (IC50) is more than 100 µM with U-87 MG [1] and 100 µM in the test with GL261 [2].

As to `Cc1ccc(S(=O)(=O)n2cc(Cc3cc(C)c(O)c(C)c3)c3cc(NC(=O)CCCC[C@@H]4SC[C@@H]5NC(=O)N[C@@H]54)ccc32)cc1`, the inhibition result in the test on GL261 [3] and in the test on U-87 MG [4] was “Active” each time.

Consider `CC(=O)n1cc(Cc2cc(C)c(O)c(C)c2)c2ccccc21`, for which the values for the IC50 in the test with U-87 MG [1] and in the test with GL261 [2] were 58.3 µM and 25.4 µM, respectively.

For `Cc1cc(Cc2c[nH]c3ccc([N+](=O)[O-])cc23)cc(C)c1O`, the IC50 is 74.6 µM with U-87 MG [1] and 43.8 µM with GL261 [2].

`Cc1cc(Cc2cn(Cc3ccc(Cl)cc3)c3ccccc23)cc(C)c1O`: the IC50 in the test with U-87 MG [1] was found to be 87.8 µM; in the test with GL261 [2], 54.9 µM.
